Source: ChEMBL document CHEMBL4507319 (2021)

What was measured:
[1] = molecular target: T1, Myosin-IIIb (Homo sapiens) (UniProt Q8WXR4); conditions: Compound concentration 1000.0 nM
T1 sequence (whole entry): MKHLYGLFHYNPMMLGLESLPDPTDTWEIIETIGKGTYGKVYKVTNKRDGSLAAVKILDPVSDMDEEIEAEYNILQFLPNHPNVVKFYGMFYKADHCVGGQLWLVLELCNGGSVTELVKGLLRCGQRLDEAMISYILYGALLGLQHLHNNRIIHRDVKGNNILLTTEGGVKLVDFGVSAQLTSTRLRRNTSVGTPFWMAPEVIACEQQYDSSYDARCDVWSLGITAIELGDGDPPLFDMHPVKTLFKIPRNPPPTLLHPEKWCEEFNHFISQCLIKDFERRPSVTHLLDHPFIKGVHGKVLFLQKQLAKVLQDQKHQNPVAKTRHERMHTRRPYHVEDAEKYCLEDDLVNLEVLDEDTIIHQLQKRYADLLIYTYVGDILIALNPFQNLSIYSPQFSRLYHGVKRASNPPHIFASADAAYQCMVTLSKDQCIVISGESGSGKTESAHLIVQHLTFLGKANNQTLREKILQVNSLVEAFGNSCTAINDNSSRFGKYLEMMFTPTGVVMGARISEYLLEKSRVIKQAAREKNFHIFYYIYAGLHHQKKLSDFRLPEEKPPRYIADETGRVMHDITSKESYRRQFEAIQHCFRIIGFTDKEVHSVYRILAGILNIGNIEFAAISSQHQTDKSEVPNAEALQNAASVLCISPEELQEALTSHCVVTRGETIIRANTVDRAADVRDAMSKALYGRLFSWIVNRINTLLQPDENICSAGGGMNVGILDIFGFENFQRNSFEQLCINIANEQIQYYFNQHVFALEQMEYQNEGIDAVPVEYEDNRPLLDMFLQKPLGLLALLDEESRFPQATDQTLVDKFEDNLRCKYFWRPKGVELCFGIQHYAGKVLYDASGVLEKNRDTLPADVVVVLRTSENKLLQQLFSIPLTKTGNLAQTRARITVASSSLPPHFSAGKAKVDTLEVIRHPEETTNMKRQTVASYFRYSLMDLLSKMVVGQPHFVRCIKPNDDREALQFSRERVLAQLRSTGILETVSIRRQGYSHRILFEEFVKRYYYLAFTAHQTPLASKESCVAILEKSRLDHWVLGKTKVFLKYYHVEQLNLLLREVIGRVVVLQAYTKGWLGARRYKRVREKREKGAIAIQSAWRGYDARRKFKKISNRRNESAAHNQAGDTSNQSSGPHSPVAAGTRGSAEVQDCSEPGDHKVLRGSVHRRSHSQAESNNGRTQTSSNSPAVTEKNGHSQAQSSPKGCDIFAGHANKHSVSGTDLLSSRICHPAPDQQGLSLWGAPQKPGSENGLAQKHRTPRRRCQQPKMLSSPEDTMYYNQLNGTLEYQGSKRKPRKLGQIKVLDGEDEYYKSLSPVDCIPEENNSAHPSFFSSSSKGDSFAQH

[2] = molecular target: Angiopoietin-1 receptor (Homo sapiens) (UniProt Q02763); conditions: Compound concentration 1000.0 nM
[3] = system: Mast/stem cell growth factor receptor Kit (Homo sapiens), P10721 [V559D,T670I]; conditions: Compound concentration 1000.0 nM
[4] = molecular target: Mitogen-activated protein kinase kinase kinase 14 (Homo sapiens) (UniProt Q99558); conditions: Compound concentration 1000.0 nM
[5] = molecular target: Mitogen-activated protein kinase kinase kinase 9 (Homo sapiens) (UniProt P80192); conditions: Compound concentration 1000.0 nM
[6] = system: Serine/threonine-protein kinase B-raf (Homo sapiens), P15056 [V600E]; conditions: Compound concentration 1000.0 nM
[7] = molecular target: Proto-oncogene tyrosine-protein kinase Src (Homo sapiens) (UniProt P12931); conditions: Compound concentration 1000.0 nM
[8] = molecular target: GABA-A receptor; anion channel (Rattus norvegicus) (UniProt O09028+P15431+P18506+P18508+P19969+P20236+P23574+P23576+P28471+P28473+P30191+P62813+P63079+P63138+Q91ZM7+Q9ES14); conditions: Compound concentration 10.0 uM
[9] = molecular target: Protein-tyrosine kinase 6 (Homo sapiens) (UniProt Q13882); conditions: Compound concentration 1000.0 nM
[10] = molecular target: Bone morphogenetic protein receptor type-1A (Homo sapiens) (UniProt P36894); conditions: Compound concentration 1000.0 nM
[11] = molecular target: Serine/threonine-protein kinase 10 (Homo sapiens) (UniProt O94804); conditions: Compound concentration 1000.0 nM
[12] = molecular target: T2, cGMP-dependent protein kinase 2 (Homo sapiens) (UniProt Q13237); conditions: Compound concentration 1000.0 nM
T2 sequence (whole entry): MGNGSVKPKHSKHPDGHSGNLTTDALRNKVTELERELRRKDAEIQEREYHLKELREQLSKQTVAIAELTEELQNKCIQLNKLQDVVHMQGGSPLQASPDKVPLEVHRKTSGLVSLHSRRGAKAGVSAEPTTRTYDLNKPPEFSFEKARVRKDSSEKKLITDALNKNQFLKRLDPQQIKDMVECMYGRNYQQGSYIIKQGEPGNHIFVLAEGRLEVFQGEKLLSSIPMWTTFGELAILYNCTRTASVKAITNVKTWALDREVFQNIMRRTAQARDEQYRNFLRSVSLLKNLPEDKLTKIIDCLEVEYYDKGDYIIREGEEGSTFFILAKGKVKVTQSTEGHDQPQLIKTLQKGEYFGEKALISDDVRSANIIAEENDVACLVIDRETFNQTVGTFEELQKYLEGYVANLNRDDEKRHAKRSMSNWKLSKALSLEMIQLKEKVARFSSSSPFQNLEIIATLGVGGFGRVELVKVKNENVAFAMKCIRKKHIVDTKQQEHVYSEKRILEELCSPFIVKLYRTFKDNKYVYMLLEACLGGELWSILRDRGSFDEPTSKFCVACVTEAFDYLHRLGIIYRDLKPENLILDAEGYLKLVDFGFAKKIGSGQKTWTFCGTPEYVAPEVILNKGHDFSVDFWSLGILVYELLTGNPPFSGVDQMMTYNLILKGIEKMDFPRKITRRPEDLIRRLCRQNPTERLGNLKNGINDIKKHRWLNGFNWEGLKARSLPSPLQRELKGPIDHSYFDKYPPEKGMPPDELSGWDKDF

[13] = molecular target: NT-3 growth factor receptor (Homo sapiens) (UniProt Q16288); conditions: Compound concentration 1000.0 nM
[14] = molecular target: MAP kinase-interacting serine/threonine-protein kinase 2 (Homo sapiens) (UniProt Q9HBH9); conditions: Compound concentration 1000.0 nM
Sequence of MAP kinase-interacting serine/threonine-protein kinase 2 (Homo sapiens) (Q9HBH9 whole entry, looked up): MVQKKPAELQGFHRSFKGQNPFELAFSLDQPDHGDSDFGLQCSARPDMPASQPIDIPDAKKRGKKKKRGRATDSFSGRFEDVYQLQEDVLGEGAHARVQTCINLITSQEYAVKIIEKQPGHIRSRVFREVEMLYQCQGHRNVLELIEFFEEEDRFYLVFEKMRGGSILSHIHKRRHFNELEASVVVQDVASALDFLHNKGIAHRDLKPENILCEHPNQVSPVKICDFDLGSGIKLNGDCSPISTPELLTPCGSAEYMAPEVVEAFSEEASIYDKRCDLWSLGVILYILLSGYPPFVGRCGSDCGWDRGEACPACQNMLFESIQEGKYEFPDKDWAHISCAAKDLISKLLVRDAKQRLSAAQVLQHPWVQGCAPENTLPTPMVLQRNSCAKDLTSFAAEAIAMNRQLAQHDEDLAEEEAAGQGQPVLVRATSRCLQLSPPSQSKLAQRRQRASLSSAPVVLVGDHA

Sequence of Mitogen-activated protein kinase kinase kinase 14 (Homo sapiens) (Q99558 whole entry, looked up): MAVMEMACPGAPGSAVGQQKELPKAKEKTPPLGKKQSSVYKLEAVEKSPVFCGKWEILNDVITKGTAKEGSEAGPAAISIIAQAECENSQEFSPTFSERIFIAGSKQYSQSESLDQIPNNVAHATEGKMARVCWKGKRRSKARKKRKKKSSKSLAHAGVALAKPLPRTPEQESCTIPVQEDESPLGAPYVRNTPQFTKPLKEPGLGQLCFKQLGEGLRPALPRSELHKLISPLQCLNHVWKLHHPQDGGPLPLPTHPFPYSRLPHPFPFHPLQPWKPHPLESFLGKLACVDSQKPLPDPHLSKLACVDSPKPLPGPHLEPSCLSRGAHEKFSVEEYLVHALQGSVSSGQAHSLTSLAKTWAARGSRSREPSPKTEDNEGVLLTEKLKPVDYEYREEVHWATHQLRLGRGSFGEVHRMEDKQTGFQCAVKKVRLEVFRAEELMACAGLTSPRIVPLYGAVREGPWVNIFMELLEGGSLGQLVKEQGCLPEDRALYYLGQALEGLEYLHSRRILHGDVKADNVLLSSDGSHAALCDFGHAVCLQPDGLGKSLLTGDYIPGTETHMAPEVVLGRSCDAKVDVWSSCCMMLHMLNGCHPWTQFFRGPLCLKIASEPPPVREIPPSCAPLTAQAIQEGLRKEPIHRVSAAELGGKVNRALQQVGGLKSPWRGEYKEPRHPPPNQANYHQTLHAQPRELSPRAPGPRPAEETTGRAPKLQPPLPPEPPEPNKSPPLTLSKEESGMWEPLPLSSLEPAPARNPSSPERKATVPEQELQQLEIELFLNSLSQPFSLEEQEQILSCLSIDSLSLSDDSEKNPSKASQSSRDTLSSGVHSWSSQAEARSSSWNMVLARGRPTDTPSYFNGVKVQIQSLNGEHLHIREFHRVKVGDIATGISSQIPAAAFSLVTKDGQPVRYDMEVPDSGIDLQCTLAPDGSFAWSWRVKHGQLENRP
Sequence of Proto-oncogene tyrosine-protein kinase Src (Homo sapiens) (P12931 2-536 limits assumed): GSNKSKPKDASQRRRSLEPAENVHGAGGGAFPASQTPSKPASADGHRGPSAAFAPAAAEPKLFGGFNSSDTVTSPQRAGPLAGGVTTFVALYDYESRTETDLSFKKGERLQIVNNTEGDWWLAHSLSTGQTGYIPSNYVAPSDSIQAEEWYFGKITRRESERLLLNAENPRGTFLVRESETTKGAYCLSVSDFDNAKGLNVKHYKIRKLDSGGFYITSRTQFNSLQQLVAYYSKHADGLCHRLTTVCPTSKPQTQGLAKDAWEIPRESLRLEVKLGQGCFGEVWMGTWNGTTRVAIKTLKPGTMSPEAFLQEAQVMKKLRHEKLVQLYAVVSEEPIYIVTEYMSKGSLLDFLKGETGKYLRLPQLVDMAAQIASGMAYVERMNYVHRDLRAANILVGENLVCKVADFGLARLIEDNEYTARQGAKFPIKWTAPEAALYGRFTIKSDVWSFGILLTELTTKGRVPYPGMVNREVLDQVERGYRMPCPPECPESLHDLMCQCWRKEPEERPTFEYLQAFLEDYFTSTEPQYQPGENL
Sequence of Angiopoietin-1 receptor (Homo sapiens) (Q02763 whole entry): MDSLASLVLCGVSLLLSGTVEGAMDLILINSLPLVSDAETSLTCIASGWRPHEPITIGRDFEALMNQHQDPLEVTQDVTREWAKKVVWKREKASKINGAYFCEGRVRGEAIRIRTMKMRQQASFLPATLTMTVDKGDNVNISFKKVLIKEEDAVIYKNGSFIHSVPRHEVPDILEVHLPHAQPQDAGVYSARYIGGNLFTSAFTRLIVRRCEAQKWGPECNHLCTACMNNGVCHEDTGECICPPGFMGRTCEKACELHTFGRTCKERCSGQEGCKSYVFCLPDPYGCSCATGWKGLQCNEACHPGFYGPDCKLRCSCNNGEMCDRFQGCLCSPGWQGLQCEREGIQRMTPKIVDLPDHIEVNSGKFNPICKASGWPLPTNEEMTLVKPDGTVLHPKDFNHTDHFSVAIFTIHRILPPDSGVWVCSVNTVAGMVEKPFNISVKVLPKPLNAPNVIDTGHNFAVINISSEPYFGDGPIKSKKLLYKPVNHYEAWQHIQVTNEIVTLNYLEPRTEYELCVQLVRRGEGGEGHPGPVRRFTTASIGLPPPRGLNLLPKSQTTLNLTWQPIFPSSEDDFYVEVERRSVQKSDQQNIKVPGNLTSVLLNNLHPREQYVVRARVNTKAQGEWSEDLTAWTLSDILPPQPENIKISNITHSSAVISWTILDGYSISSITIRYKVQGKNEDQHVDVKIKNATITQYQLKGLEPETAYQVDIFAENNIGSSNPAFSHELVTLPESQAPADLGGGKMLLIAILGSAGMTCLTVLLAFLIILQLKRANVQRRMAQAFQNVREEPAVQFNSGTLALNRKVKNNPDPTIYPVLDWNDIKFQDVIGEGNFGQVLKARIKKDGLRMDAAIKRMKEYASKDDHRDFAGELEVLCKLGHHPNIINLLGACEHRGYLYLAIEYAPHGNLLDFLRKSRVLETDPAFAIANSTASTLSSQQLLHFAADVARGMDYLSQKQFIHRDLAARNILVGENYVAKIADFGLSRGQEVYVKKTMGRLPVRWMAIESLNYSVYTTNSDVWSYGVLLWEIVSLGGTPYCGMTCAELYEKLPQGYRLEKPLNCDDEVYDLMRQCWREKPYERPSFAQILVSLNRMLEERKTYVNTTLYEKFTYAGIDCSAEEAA
Sequence of Mitogen-activated protein kinase kinase kinase 9 (Homo sapiens) (P80192 whole entry, looked up): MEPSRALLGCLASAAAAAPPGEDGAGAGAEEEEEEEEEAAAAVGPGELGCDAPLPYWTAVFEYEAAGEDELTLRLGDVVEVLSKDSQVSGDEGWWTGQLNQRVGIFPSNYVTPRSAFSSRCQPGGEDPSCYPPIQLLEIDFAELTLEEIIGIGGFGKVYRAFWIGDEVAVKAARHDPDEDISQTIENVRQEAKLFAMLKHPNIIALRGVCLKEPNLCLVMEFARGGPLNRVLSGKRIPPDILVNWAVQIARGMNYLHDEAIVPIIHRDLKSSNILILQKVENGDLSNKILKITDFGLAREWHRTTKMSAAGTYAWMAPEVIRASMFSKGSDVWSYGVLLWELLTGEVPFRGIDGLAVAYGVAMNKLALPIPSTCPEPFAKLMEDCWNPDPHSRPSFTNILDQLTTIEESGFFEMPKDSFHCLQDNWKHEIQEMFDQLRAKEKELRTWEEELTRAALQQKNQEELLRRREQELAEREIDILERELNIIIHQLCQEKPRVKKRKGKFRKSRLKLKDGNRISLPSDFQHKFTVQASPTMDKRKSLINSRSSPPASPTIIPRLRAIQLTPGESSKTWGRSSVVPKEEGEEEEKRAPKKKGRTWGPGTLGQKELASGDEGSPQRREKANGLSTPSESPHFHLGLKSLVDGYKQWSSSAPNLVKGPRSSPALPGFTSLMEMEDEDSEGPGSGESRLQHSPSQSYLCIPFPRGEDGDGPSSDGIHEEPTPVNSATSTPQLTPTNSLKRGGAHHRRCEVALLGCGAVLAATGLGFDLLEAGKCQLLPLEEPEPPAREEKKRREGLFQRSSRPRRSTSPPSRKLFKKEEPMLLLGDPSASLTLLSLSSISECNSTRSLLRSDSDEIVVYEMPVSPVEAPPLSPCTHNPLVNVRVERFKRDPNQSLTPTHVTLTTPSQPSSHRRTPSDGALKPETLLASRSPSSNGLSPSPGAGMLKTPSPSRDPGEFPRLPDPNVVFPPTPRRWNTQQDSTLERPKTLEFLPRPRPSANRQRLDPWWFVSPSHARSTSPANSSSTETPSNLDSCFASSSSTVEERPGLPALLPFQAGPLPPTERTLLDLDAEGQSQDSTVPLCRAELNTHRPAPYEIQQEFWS
Sequence of Serine/threonine-protein kinase B-raf (Homo sapiens), P15056 [V600E] (P15056 whole entry V600E): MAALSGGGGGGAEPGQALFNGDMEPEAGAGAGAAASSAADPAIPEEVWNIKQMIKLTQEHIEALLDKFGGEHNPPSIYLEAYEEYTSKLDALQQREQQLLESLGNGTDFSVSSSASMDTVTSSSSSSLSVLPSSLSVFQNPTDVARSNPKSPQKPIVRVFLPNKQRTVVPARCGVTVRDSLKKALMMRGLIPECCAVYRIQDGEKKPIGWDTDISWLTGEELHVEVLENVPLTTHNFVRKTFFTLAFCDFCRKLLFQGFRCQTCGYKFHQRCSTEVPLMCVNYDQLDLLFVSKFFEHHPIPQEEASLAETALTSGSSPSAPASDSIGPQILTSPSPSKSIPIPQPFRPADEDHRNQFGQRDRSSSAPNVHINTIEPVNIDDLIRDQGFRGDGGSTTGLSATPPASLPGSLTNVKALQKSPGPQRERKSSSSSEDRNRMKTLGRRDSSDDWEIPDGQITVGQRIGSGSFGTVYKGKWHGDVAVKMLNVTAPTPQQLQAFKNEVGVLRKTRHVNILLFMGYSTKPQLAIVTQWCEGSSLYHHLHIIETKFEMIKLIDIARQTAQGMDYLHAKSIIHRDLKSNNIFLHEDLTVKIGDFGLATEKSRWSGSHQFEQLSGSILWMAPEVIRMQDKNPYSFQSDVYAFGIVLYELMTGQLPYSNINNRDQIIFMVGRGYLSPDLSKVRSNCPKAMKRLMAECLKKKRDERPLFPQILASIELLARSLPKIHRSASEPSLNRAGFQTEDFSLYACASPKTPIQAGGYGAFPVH

CCc1ccccc1C(=O)Nc1n[nH]c2c(C)c(F)c(C3C(C#N)=C(C)N(C)C(C)=C3C#N)cc12 [BAY-3827]
inactive: residual activity [1] 77% | residual activity [2] 91% | residual activity [3] 98% | residual activity [4] 75% | residual activity [5] 92% | residual activity [6] 100% | residual activity [7] 94% | inhibition [8] -7.98% | residual activity [9] 100% | residual activity [10] 87% | residual activity [11] 100% | residual activity [12] 100% | residual activity [13] 100% | residual activity [14] 98%

CC1=C(C#N)C(c2ccc3c(c2)c(NC(=O)c2ccccc2C)nn3C)C(C#N)=C(C)N1 [BAY-974]
inactive: residual activity [1] 100% | residual activity [2] 98% | residual activity [3] 100% | residual activity [4] 69% | residual activity [5] 96% | residual activity [6] 62% | residual activity [7] 89% | inhibition [8] -0.8% | residual activity [9] 100% | residual activity [10] 100% | residual activity [11] 68% | residual activity [12] 72% | residual activity [13] 83% | residual activity [14] 100%
